# Data reported in patent US20140147853A1, “Method for Predicting Respiratory Toxicity of Compounds” (priority 2009, published 2014).
# Entries after “also recorded” stand apart in the source; their conditions may differ. Where two headings read alike, the source gives them in different places.
# How the values were obtained:
# EPIAIRWAY cells [1] = experiment: Intracellular glutathione (GSH) levels, oxidative stress; type: cell-based, human
# Description: (§1) The dosing regimen used here brackets this dose. […] Again, the dosing regimen used brackets this concentration. […] This calculates to 750 ng/cm^2.
# Intracellular glutathione levels were determined essentially as described by Griffith (1980) with modifications. At the end of the exposure period, the medium was removed from the cells and metaphosphoric acid (MPA) was added to each well. Plates were then shaken for 5 min at room temperature and stored at −20° C. until needed.
# IL-6 = experiment: qRT-PCR gene expression in EPIAIRWAY cells; type: cell-based, human; conditions: for IL-6 mRNA expression vs control: 24 hours, 1, 10, 30, 100 dosed
# Description: as §1
# IL-1α = experiment: qRT-PCR gene expression in EPIAIRWAY cells; type: cell-based, human; conditions: 24 hours; 1, 10, 30, 100 dosed
# Description: as §1
# IL-8 = experiment: qRT-PCR gene expression in EPIAIRWAY cells; type: cell-based, human; conditions: 24 hours
# Description: as §1
# TNF-α = experiment: qRT-PCR gene expression in EPIAIRWAY cells; type: cell-based, human; conditions: for TNF-α mRNA expression vs control: 1, 10, 30, 100 dosed
# Description: as §1
# Bcl2 = experiment: qRT-PCR gene expression in EPIAIRWAY cells; type: cell-based, human; conditions: 24 hours
# Description: as §1
# EPIAIRWAY cells [2] = experiment: Cell viability by MTT reduction in EPIAIRWAY 3-D model; type: cell-based, human
# Description: as §1
# Cell viability was determined by measuring the reduction of 3-[4,5-dimethylthiazol-2-yl]2,5-diphenyltetrazolium bromide (MTT). The cells in each well were evaluated for their ability to reduce soluble-MTT (yellow) to formazan-MTT (purple). An MTT stock solution was prepared […] complete medium just prior to use and warmed to 37° C. in a water bath. Once the media and dosing solution was removed from all wells, MTT solution was added to the basal side of each well and the plate was allowed to incubate at 37° C. for 3-4 hr. Media was removed and the purple formazan product was extracted using anhydrous isopropanol applied to both the apical and basal side of the cells. Sample absorbance was read at 570 nm and reference absorbance at 650 nm with a Packard Fusion or equivalent plate reader.
# [3] = system: fetal human lung cells and human lung fibroblasts; conditions: Sakaguchi 1984, Lehnert 2001; cited from earlier work
# [4] = system: human fetal lung fibroblasts; conditions: Yang et al., 1997; cited from earlier work
# EPIAIRWAY cells [5] = experiment: Histology of EPIAIRWAY 3-D model (structural integrity); type: cell-based, human
# Description: as §1
# Cells were isolated using a 3 mm biopsy punch (Miltex, York, PA) and immediately placed in […] 10% Neutral Buffered Formalin (Fisher Diagnostics, Middletown, Va.). Histology was performed essentially as described by Sheehan and Hrapchak (1980). Briefly, cells were processed and embedded into paraffin wax blocks. The blocks were sectioned at 3 μm, adhered to slides and stained with hematoxylin and eosin. Photos were taken at 10× magnification.
# Bax = experiment: qRT-PCR gene expression in EPIAIRWAY cells; type: cell-based, human; conditions: 24 hours
# Description: as §1
# human epithelial cells = conditions: Han et al., 2007; cited from earlier work
# [6] = Literature: phase 1 study of inhaled doxorubicin; type: in vivo, human; conditions: calculated from 7.5 mg/m^2
# Description: as §1
# [7] = every 3 weeks, phase 1 study (Otterson 2007); cited from earlier work
# TGF-β = experiment: qRT-PCR gene expression in EPIAIRWAY cells; type: cell-based, human; conditions: 24 hours of exposure
# Description: as §1
# EPIAIRWAY cells [8] = experiment: LDH release into the media by EPIAIRWAY cells; type: cell-based, human; conditions: 100 μM
# Text: The primary shortcoming of this model system appears to be that the MTT results to not compare well with histology. This may be due to the fact that the basal cell layers have the highest metabolic activity given that they are still rapidly dividing. […] Fortunately, there appears to be a much more concise method to assess cytotoxicity in this model system. Lactate dehydrogenase is a cytosolic enzyme commonly used as a marker for cell membrane permeability, and therefore, cytotoxicity (Davies et al., 1973).
# [9] = system: human lung epithelia and fibroblasts; conditions: in vitro (Sato 1999, Takamizawa 1999); ~7.1 μM; cited from earlier work
# [10] = 24 hours, 1, 10, 30, 100 dosed, >2-fold significant
# [11] = any dose (1, 10, 30, 100), 24 and 72 hours
# [12] = dose-dependent, 1-100 μM, maximum reached
# Description for CYP1A1: The three-dimensional in vitro human [sequence] system may be purchased from MatTek (Ashland, Mass.). Cultures are maintained with supplied culture media according to the manufacturer's instructions. Briefly, [sequence] 96-well plates are allowed to equilibrate in 250 μL media for at least 18 hours overnight at 37° C. with 5% CO2 upon arrival. Media is changed every other day if cells are not used immediately after equilibration.
# In the Examples described below, dosing solutions were prepared in DPBS (MatTek, Ashland, Mass.). The [sequence] cells were dosed with 100 μL of the following concentrations: 1, 10, 30 and 100 μM bleomycin, cadmium chloride, beryllium sulfate and doxorubicin; 1, 10, 30 and 100 μg/cm^2 silica; and 1, 10, 30 and 100 ng/mL LPS. […] The dosing regimen used here brackets this dose. […] Again, the dosing regimen used brackets this concentration. […] This calculates to 750 ng/cm^2. The concentrations and volumes dosed calculate to 483 ng/cm^2 (1 μM), 4.83 μg/cm^2 (10 μM), 14.5 μg/cm^2 (30 μM) and 48.3 μg/cm^2 (100 μM) doxorubicin, bracketing the safe range. MIN-U-SIL 5 silica, with an average surface area of 5.1 cm^2/g gives the following concentrations dosed: 0.051 cm^2/cm^2 (1 μg/cm^2), 0.51 cm^2/cm^2 (10 μg/cm^2), 1.53 cm^2/cm^2 (30 μg/cm^2) and 5.1 cm^2/cm^2 (100 μg/cm^2). […] In order to analyze the acute response of [sequence] cells to LPS, cells are exposed to LPS concentrations ranging from 1 ng/mL to 100 ng/mL. Following the exposure period, the dosing solutions are removed and cells are analyzed for changes in structure, cell viability, oxidative stress and gene expression.
# Total RNA was isolated from [sequence] human respiratory cells by the TRIZOL (Invitrogen, Carlsbad, Calif.) method (Chomczynski and Sacchi, 1987)with modifications. Briefly, cells were punched out using a biopsy punch (Miltex, York, Pa.) and immediately placed in TRIZOL. The samples were then frozen at −80° C. until needed. After thawing, the isolation procedure followed the manufacturer's instructions.
# Induction of target gene mRNA was determined as follows, by standard one-step qRT-PCR techniques using multiple internal control genes for normalization with a few modifications (Vandesompele et al, 2002). RT-PCR was performed using the Quantitect® SYBR Green RT-PCR kit (Qiagen, Valencia, Calif.) according to the manufacturer's instructions for 20 μL reactions. All primers were [sequence] Primer Assay (Qiagen, Valencia, Calif.) containing forward and reverse primers in the same tube (see Table 1, below). Briefly, 50 ng of RNA in 20 μL reactions are set up in 384-well RT-PCR plates (Roche Diagnostics Corp., Indianapolis, Ind.) and placed in a [sequence] 480 real time PCR machine (Roche Diagnostics Corp., Indianapolis, Ind.). One-step PCR was set as follows; reverse transcription was 1 cycle of 50° C. for 30 minutes followed by 95° C. for 15 minutes. Amplification was set for 45 cycles of 94° C. for 15 seconds, 55° C. for 20 seconds and 72° C. for 20 seconds. Melting curve was generated by 1 cycle of 95° C. for 5 seconds followed by 65° C. for 1 minute. Data were analyzed using the [sequence] 480 software version 1.5.0.39 (Roche Diagnostics Corp., Indianapolis, Ind.). The expression levels of multiple housekeeping genes were determined and an average fold induction over vehicle was elucidated for each housekeeping gene.
compound,measurement,setting,value
"O=S(=O)([O-])[O-].[Be+2] [Beryllium sulfate, beryllium sulfate]",Intracellular GSH,"EPIAIRWAY cells [1]; 1 μM, 72 hours",65 % of control
same,Effect on intracellular GSH,"EPIAIRWAY cells [1]; 10 μM, 72 hours",did not have an effect
same,Intracellular GSH,"EPIAIRWAY cells [1]; 30 μM, 72 hours",83 % of control
same,Intracellular GSH,"EPIAIRWAY cells [1]; 100 μM, 72 hours",71 % of control
same,Effect on intracellular GSH,"EPIAIRWAY cells [1]; 24 hours, 1, 10, 30 and 100 μM",no effect
same,IL-6 mRNA expression vs control,IL-6,substantially induced
same,IL-1α mRNA expression vs control,IL-1α,substantially induced
same,IL-8 mRNA expression vs control,IL-8; 1 and 30 μM,mildly induced
same,TNFα mRNA expression vs control,"TNF-α; 100 μM, 24 hours",mildly induced
same,Bcl2 mRNA expression vs control,Bcl2; 100 μM,mildly induced
same,CYP1A1 mRNA expression vs control,CYP1A1; [10],substantially induced
same,Effect on cell viability (MTT),EPIAIRWAY cells [2]; [11],did not reduce cell viability
[Be+2] [Beryllium],Lowest cytotoxic concentration,[3],≥ 5.5 µM
"[Cl][Cd][Cl] [Cadmium chloride, cadmium chloride]",Concentration inducing significant LDH release,[4],8.75 µM
same,Histology: cell structure,"EPIAIRWAY cells [5]; 10 μM, 24 hour exposure",cell loss
same,Histology: cell structure,"EPIAIRWAY cells [5]; 100 μM, 24 hour exposure",much more noticeable a breakdown of cellular structure
same,Histology: cell structure,EPIAIRWAY cells [5]; 24 hours,significant structural breakdown and cell loss
same,Effect on intracellular GSH,"EPIAIRWAY cells [1]; 24 hours, 1, 10, 30 and 100 μM",no reduction
same,IL-6 mRNA expression vs control,IL-6,substantially induced
same,TNF-α mRNA expression vs control,TNF-α; 24 hours,mild induction
same,Bax mRNA expression vs control,Bax; 100 μM,mildly induced
same,Bcl2 mRNA expression vs control,Bcl2; 100 μM,mildly induced
same,Concentration exhibiting cytotoxicity,human epithelial cells,50 µM
same,CYP1A1 mRNA expression vs control,CYP1A1; [10],substantially induced
same,Cell viability (MTT),"EPIAIRWAY cells [2]; 100 μM, 24 hours",56 % of control
COc1cccc2c1C(=O)c1c(O)c3c(c(O)c1C2=O)C[C@@](O)(C(=O)CO)C[C@@H]3O[C@H]1C[C@H](N)[C@H](O)[C@H](C)O1 [Doxorubicin],Histology: cell structure,EPIAIRWAY cells [5]; 24 hours,significant structural breakdown and loss of cells; also recorded: significant structural breakdown and cell loss
same,Intracellular GSH,"EPIAIRWAY cells [1]; 100 μM, 72 hours",10 % of control
same,Intracellular GSH,"EPIAIRWAY cells [1]; 10, 30 and 100 μM, 24 hours",80 % of control
same,IL-6 mRNA expression vs control,IL-6,substantially induced
same,IL-1α mRNA expression vs control,IL-1α,substantially induced
same,IL-8 mRNA expression vs control,IL-8; only 1 μM,mildly induced
same,TNF-α mRNA expression vs control,TNF-α; 24 hours,substantially induced
same,Ratio of Bax:Bcl2 expression,Bax,decreased
same,Bcl2 mRNA expression vs control,"Bcl2; 1, 10, 30 and 100 μM",substantially induced
same,Safe inhalation dose recalculated per area,[6],750 ng/cm^2
same,Dose identified as safe for inhalation,[7],up to 7.5 mg/m^2
same,CYP1A1 mRNA expression vs control,CYP1A1,substantially induced
same,Effect on cell viability (MTT),"EPIAIRWAY cells [2]; 1 μM, either time point (24, 72 hours)",no effect on cell viability
same,Cell viability (MTT),"EPIAIRWAY cells [2]; 100 μM, 72 hours",57 % of control
same,Effect on cell viability (MTT),"EPIAIRWAY cells [2]; 24 hours, 1, 10, 30 and 100 μM",not observed
Bleomycin,Histology: cell structure,EPIAIRWAY cells [5]; 24 hours,significant structural breakdown and cell loss; also recorded: significant structural breakdown and loss of cells
same,Intracellular GSH,"EPIAIRWAY cells [1]; 1 μM, 72 hours",71 % of control
same,Total cellular GSH,"EPIAIRWAY cells [1]; 100 μM, 24 hours",75 % of control
same,TGF-β mRNA expression vs control,TGF-β,induction was not seen
same,IL-6 mRNA increase over control tissues,IL-6; [12],> 20 fold
same,IL-1α mRNA expression vs control,IL-1α,induced in a dose-dependent manner
same,IL-8 mRNA expression vs control,"IL-8; 1, 10, 30, 100 dosed",induced in a dose-dependent manner
same,TNF-α mRNA increase over control tissues,TNF-α; [12],> 20 fold
same,Ratio of Bax:Bcl2 expression,Bax,decreased
same,Bcl2 mRNA expression vs control,"Bcl2; 1, 10, 30 and 100 μM",induced
same,"LDH release into the media, increase compared to control",EPIAIRWAY cells [8]; 24 hours,292%
same,"LDH release into the media, increase compared to control",EPIAIRWAY cells [8]; 72 hours,588%
same,CYP1A1 mRNA expression vs control,CYP1A1; [10],greatly induced
same,Effect on cell viability (MTT),"EPIAIRWAY cells [2]; 24 hours, 1, 10, 30 and 100 μM",no effect on viability
same,Cell viability (MTT),"EPIAIRWAY cells [2]; 72 hour exposure, 1, 10, 30 and 100 μM dosed",90 % of control
same,Concentration inducing cytokine release while relatively non-toxic,[9],10 µg/mL
Triton X-100,Histology: killing of basal cell layers,"EPIAIRWAY cells [5]; 0.3%, 24 hours",unable to kill these bottom layers of cells
lipopolysaccharide [LPS],Intracellular GSH,"EPIAIRWAY cells [1]; 100 ng/mL, 24 hours",65 % of control
same,IL-6 mRNA expression vs control,IL-6,"substantial, dose-independant induction"
same,IL-1α mRNA expression vs control,IL-1α,"substantial, dose-independant induction"
same,IL-8 mRNA expression vs control,"IL-8; 1, 10, 30, 100 dosed",mild induction
same,TNF-α mRNA expression vs control,TNF-α; 24 hours,"substantial, dose-independant induction"
same,Bcl2 mRNA expression vs control,Bcl2; only 30 and 100 ng/mL,induced
same,CYP1A1 mRNA expression vs control,CYP1A1; [10],dose-dependant increase
same,Effect on cell viability (MTT),EPIAIRWAY cells [2]; [11],did not reduce cell viability
